Laboratory results reported in the supplement of paper PMC13380429.

Legend:
Details in all cases: 72 h
[1] = system: Calu-3; experiment: relative viability EC50 (midpoint between 100% and the lowest measured viability); higher = less toxic
[2] = system: Caco-2; experiment: as above
[3] = system: Vero E6; experiment: as above
[4] = system: U2OS; experiment: as above
[5] = system: HepG2; experiment: drug sensitivity score (DSS) for viability; higher = more toxic; extreme values may be limits of the assay
[6] = system: Calu-3; experiment: as above
[7] = system: Caco-2; experiment: as above
[8] = system: Vero E6; experiment: as above
[9] = system: U2OS; experiment: as above
[10] = system: HepG2; experiment: cell viability relative to DMSO; higher = less toxic
[11] = system: Calu-3; experiment: as above
[12] = system: Caco-2; experiment: as above
[13] = system: Vero E6; experiment: as above
[14] = system: U2OS; experiment: as above
[15] = system: HepG2; experiment: relative viability EC50 (midpoint between 100% and the lowest measured viability); higher = less toxic

Row | SMILES | relative viability EC50 [1] [µM] | relative viability EC50 [2] [µM] | relative viability EC50 [3] [µM] | relative viability EC50 [4] [µM] | drug sensitivity score [5] | drug sensitivity score [6] | drug sensitivity score [7] | drug sensitivity score [8] | drug sensitivity score [9] | cell viability ([10]; 1 nM) [%] | cell viability ([10]; 10 nM) [%] | cell viability ([10]; 100 nM) [%] | cell viability ([10]; 1000 nM) [%] | cell viability ([10]; 10000 nM) [%] | cell viability ([11]; 1 nM) [%] | cell viability ([11]; 10 nM) [%] | cell viability ([11]; 100 nM) [%] | cell viability ([11]; 1000 nM) [%] | cell viability ([11]; 10000 nM) [%] | cell viability ([12]; 1 nM) [%] | cell viability ([12]; 10 nM) [%] | cell viability ([12]; 100 nM) [%] | cell viability ([12]; 1000 nM) [%] | cell viability ([12]; 10000 nM) [%] | cell viability ([13]; 1 nM) [%] | cell viability ([13]; 10 nM) [%] | cell viability ([13]; 100 nM) [%] | cell viability ([13]; 1000 nM) [%] | cell viability ([13]; 10000 nM) [%] | cell viability ([14]; 1 nM) [%] | cell viability ([14]; 10 nM) [%] | cell viability ([14]; 100 nM) [%] | cell viability ([14]; 1000 nM) [%] | cell viability ([14]; 10000 nM) [%] | relative viability EC50 [15] [µM]
1 | CC(C)N(CCC(=O)c1ccc2ccccc2c1)Cc1ccccc1 | > 10 | > 10 | > 10 | > 10 | 1.4 | 0 | 0 | 0.3 | 0 | 98.4 | 91.6 | 99 | 101 | 66.6 | 97.6 | 102 | 102 | 97.5 | 92.1 | 90.3 | 94.8 | 94.4 | 97.7 | 99.5 | 96.2 | 98.7 | 99 | 96.3 | 87 | 99.2 | 98.2 | 93.5 | 96.7 | 95 | –
2 | CCc1c(-c2ccccc2)c(-c2ccccc2)nn1-c1ccccc1-c1cccc(OCC(=O)O)c1 | > 10 | > 10 | > 10 | > 10 | – | 0.5 | 0 | 0 | 0 | – | – | – | – | – | 93.4 | 94.7 | 101 | 94 | 86.3 | 102 | 105 | 97.8 | 113 | 91.5 | 102 | 103 | 103 | 101 | 97.9 | 99.7 | 101 | 98 | 105 | 97.4 | –
3 | CNC(=O)c1cccc(NC(=O)N2CCC(Oc3ccccc3Cl)CC2)c1 | > 10 | > 10 | > 10 | > 10 | 4.8 | 0 | 0.3 | 0 | 0 | 99.1 | 101 | 92.4 | 79.3 | 50.5 | 80.3 | 99.6 | 86.4 | 99.4 | 101 | 94.3 | 100 | 93.2 | 102 | 82.7 | 102 | 99.5 | 97 | 89.9 | 91 | 94.9 | 103 | 97.3 | 99.6 | 91.4 | –
4 | CNc1nc(-c2ccc3c(N)n[nH]c3c2)cc(N2C[C@@H](C(=O)NC3CCCCC3)CC[C@H]2C)n1 | 0.737 | – | – | – | 5.7 | 5.9 | 4.8 | 2.3 | 3.2 | 103 | 108 | 101 | 72.4 | 53.9 | 93.5 | 93.3 | 87.5 | 77.3 | 48.1 | 106 | 106 | 102 | 79 | 58 | 97.1 | 94.9 | 98.6 | 91 | 71.9 | 93.7 | 101 | 95.9 | 91 | 62.3 | –
5 | COc1ccc(-c2oc3cc(OC)ccc3c2C(=O)c2ccc(C#N)cc2)cc1 | > 10 | > 10 | > 10 | > 10 | 2 | 0 | 0 | 0 | 0 | 107 | 96.8 | 109 | 92.8 | 74.4 | 96.4 | 98.8 | 101 | 106 | 102 | 99.7 | 96.4 | 95.3 | 93.6 | 87.2 | 104 | 101 | 101 | 96.4 | 99 | 98.2 | 103 | 95.2 | 101 | 95.4 | –
6 | COc1ccc(Cn2ccc3ccc(C(=O)NO)cc32)cc1 | > 10 | – | – | – | 3.2 | 0.1 | 1.2 | 3.4 | 1.6 | 105 | 102 | 97.7 | 94.2 | 56.4 | 103 | 95.2 | 96.8 | 100 | 86.7 | 98 | 97 | 100 | 101 | 70.1 | 96.7 | 100 | 104 | 94.8 | 51.5 | 97.9 | 98.2 | 97.5 | 97 | 72.4 | –
7 | COc1ccc2[nH]cc(C3=CCNCC3)c2c1 | > 10 | > 10 | > 10 | > 10 | – | 0 | 0 | 0 | 0 | – | – | – | – | – | 92.3 | 90 | 95.1 | 96.1 | 101 | 90.7 | 107 | 99.6 | 106 | 98.4 | 101 | 98.7 | 104 | 105 | 100 | 95.7 | 103 | 96 | 102 | 98.8 | –
8 | COc1ccc2nc3[nH]nc(C)c3c(NCCOCCO)c2c1 | – | > 10 | > 10 | > 10 | 2.4 | 2.1 | 0 | 0 | 0 | 104 | 97.2 | 102 | 87.6 | 75 | 106 | 107 | 88.8 | 94.7 | 70 | 103 | 102 | 89.6 | 100 | 96.8 | 106 | 98 | 102 | 99.4 | 91.9 | 102 | 102 | 95.9 | 105 | 104 | > 10
